Data set [1] concerns the target T1, human calcitonin receptor (Homo sapiens, UniProt P30988).
T1 construct: expressed in transfected cells; host or cells: BHK570
T1 sequence (P30988 25-474): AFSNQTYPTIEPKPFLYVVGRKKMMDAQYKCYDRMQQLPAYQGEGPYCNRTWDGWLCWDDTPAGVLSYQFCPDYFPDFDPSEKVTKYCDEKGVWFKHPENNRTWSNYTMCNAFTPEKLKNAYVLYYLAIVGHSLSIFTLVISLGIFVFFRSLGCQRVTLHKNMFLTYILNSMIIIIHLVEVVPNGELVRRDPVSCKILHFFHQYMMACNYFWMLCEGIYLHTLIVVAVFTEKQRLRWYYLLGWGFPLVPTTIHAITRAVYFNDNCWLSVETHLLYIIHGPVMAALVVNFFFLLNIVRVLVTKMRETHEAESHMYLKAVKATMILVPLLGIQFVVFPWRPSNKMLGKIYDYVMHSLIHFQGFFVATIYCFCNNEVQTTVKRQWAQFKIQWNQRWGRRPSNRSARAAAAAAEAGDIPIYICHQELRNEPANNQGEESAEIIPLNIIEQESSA
As to the kind of experiment: Assay (II)a functional CRE-luciferase assay, human calcitonin receptor. It counts as cell-based. Particulars: Table 7; human calcitonin (CTa) receptor.

In data set [2] the target is T2, human amylin receptor (amylin 3(a) receptor: human calcitonin receptor + RAMP-3) (Homo sapiens, UniProt O60896+P30988).
T2 construct: expressed in transfected cells; host or cells: BHK570
T2 sequence (P30988 25-474): T1 sequence (P30988 25-474)
T2 sequence (O60896 24-148 partner): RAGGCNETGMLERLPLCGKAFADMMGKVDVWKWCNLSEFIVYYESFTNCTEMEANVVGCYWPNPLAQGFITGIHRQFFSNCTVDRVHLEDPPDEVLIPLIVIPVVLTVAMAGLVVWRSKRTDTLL
As to the kind of experiment: Assay (II)a functional CRE-luciferase assay, human amylin receptor. It counts as cell-based. Particulars: Table 2; BHK amylin 3(a)-receptor/CRE-luc cells.

Data set [3] can be described thus: Assay (IV) determination of solubility. The class given is physicochemical. Put shortly:
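Eight 100 mM buffers (glycylglycine pH 3.0–5.0, bistrispropane pH 6.0–8.0) each received an equal volume of polypeptide dissolved in water at ~500 nmol/ml. Soluble polypeptide was measured by HPLC following 18 hours at room temperature and centrifugation.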

[4] abbreviates: bistrispropane buffer, pH 6, pH 6.0, read-out: Solubility pH 6.0.
Where [5] appears, read: bistrispropane buffer, pH 6.5, pH 6.5, read-out: Solubility pH 6.5.
The mark [6] stands for this setting: bistrispropane buffer, pH 7, pH 7.0, read-out: Solubility pH 7.0.
[7] abbreviates: bistrispropane buffer, pH 7.5, pH 7.5, read-out: Solubility pH 7.5.
Where [8] appears, read: bistrispropane buffer, pH 8, pH 8.0, read-out: Solubility pH 8.0.
Where [9] appears, read: glycylglycine buffer, pH 3, pH 3.0, read-out: Solubility pH 3.0.
Where [10] appears, read: glycylglycine buffer, pH 4, pH 4.0, 18 hours at room temperature, Table 2, read-out: Solubility pH 4.0.
Setting [11] is: glycylglycine buffer, pH 4, pH 4.0, read-out: Solubility pH 4.0.
The mark [12] stands for this setting: glycylglycine buffer, pH 5, pH 5.0, read-out: Solubility pH 5.0.

Values after ≈ are worked out from the molar mass of the structure shown. Where two headings read alike, the source gives them in different places. Starred links: 1 amine or outer side, 2 acyl side, 3 side chain; linkers in the order of their positions; H or OH if unused. Positions of bridges follow the written chain, without caps; N, C: chain ends. Residues, ends and D or L forms follow the SMILES beside them. *: point of attachment. C20 diacid = O=C(O)CCCCCCCCCCCCCCCCCCC(=O)*; C18 diacid = O=C(O)CCCCCCCCCCCCCCCCC(=O)*; γGlu = O=C(O)[C@H](CCC(=O)[*:2])N[*:1] Some results are limits rather than exact numbers.

What is called EC50 is the concentration giving half of the maximal effect. What is called solubility is the concentration that dissolves in the medium under given conditions.

`CC[C@H](C)[C@H](NC(=O)[C@@H]1CCCN1C(=O)CNC(=O)[C@H](Cc1ccccc1)NC(=O)[C@H](CC(N)=O)NC(=O)[C@H](CC(N)=O)NC(=O)[C@H](CO)NC(=O)[C@H](CO)NC(=O)[C@H](Cc1c[nH]cn1)NC(=O)[C@H](CCCNC(=N)N)NC(=O)[C@H](CC(C)C)NC(=O)[C@H](Cc1ccccc1)NC(=O)[C@H](CCC(=O)O)NC(=O)[C@H](C)NC(=O)[C@H](CC(C)C)NC(=O)[C@H](CCCNC(=N)N)NC(=O)[C@H](CCC(N)=O)NC(=O)[C@@H](NC(=O)[C@H](C)NC(=O)[C@@H]1CSSC[C@H](NC(=O)[C@H](CCCCN)NC(=O)CC[C@H](NC(=O)CCCCCCCCCCCCCCCCCCC(=O)O)C(=O)O)C(=O)N[C@@H](CC(N)=O)C(=O)N[C@@H]([C@@H](C)O)C(=O)N[C@@H](C)C(=O)N[C@@H]([C@@H](C)O)C(=O)N1)[C@@H](C)O)C(=O)N[C@@H](CC(C)C)C(=O)N1CCC[C@H]1C(=O)N1CCC[C@H]1C(=O)N[C@H](C(=O)N[C@@H](CC(N)=O)C(=O)N[C@H](C(=O)NCC(=O)N[C@@H](CO)C(=O)N[C@@H](CC(N)=O)C(=O)N[C@H](C(=O)N[C@@H](Cc1ccc(O)cc1)C(N)=O)[C@@H](C)O)C(C)C)[C@@H](C)O` [Example 50, N-alpha-[(S)-4-Carboxy-4-(19-carboxynonadecanoylamino)butyryl]-[Glu14,Arg17]-pramlintide] ({C20 diacid-γGlu}-KCNTATCATQRLAEFLRHSSNNFGPILPPTNVGSNTY-NH2; disulfide 2-7 (inferred)): the EC50 in data set [1] amounted to 0.459 nM; in data set [2], 0.101 nM. Also, the solubility at 18 h in data set [3] (setting [4]) is 161 µM (≈ 720 µg/mL); in data set [3] (setting [5]), 132 µM (≈ 591 µg/mL); in data set [3] (setting [6]), 73 µM (≈ 327 µg/mL); in data set [3] (setting [7]), 62 µM (≈ 277 µg/mL); in data set [3] (setting [8]), 21 µM (≈ 94 µg/mL); in data set [3] (setting [9]), greater than 200 µM. Besides, the solubility at 18 h in data set [3] (setting [10]) was greater than 200 µM; in data set [3] (setting [11]), greater than 200 µM; in data set [3] (setting [12]) it was 183 µM (≈ 819 µg/mL).

On to `CC[C@H](C)[C@H](NC(=O)[C@@H]1CCCN1C(=O)CNC(=O)[C@H](Cc1ccccc1)NC(=O)[C@H](CC(N)=O)NC(=O)[C@H](CC(N)=O)NC(=O)[C@H](CO)NC(=O)[C@H](CO)NC(=O)[C@H](Cc1c[nH]cn1)NC(=O)[C@H](CCCNC(=N)N)NC(=O)[C@H](CC(C)C)NC(=O)[C@H](Cc1ccccc1)NC(=O)[C@H](CCC(=O)O)NC(=O)[C@H](C)NC(=O)[C@H](CC(C)C)NC(=O)[C@H](CCCNC(=N)N)NC(=O)[C@H](CCC(N)=O)NC(=O)[C@@H](NC(=O)[C@H](C)NC(=O)[C@@H]1CSSC[C@H](NC(=O)[C@H](CCCCN)NC(=O)[C@H](Cc2c[nH]cn2)NC(=O)CC[C@H](NC(=O)CCCCCCCCCCCCCCCCC(=O)O)C(=O)O)C(=O)N[C@@H](CC(N)=O)C(=O)N[C@@H]([C@@H](C)O)C(=O)N[C@@H](C)C(=O)N[C@@H]([C@@H](C)O)C(=O)N1)[C@@H](C)O)C(=O)N[C@@H](CC(C)C)C(=O)N1CCC[C@H]1C(=O)N1CCC[C@H]1C(=O)N[C@H](C(=O)N[C@@H](CC(N)=O)C(=O)N[C@H](C(=O)NCC(=O)N[C@@H](CO)C(=O)N[C@@H](Cc1c[nH]cn1)C(=O)N[C@H](C(=O)N[C@@H](Cc1ccc(O)cc1)C(N)=O)[C@@H](C)O)C(C)C)[C@@H](C)O` [Example 71, N-alpha-[(S)-4-Carboxy-4-(17-carboxyheptadecanoylamino)butyryl]-His-[Glu14,Arg17,His35]-pramlintide] ({C18 diacid-γGlu}-HKCNTATCATQRLAEFLRHSSNNFGPILPPTNVGSHTY-NH2; disulfide 3-8 (inferred); C-terminus assumed), for which the half-maximal effective concentration (EC50) in data set [1] was 0.947 nM; in data set [2], 0.0795 nM. Also, the solubility at 18 h in data set [3] (setting [4]) was greater than 200 µM; in data set [3] (setting [5]), 156 µM (≈ 719 µg/mL); in data set [3] (setting [6]) it was 37 µM (≈ 170 µg/mL); in data set [3] (setting [7]) it was 27 µM (≈ 124 µg/mL); in data set [3] (setting [8]), 26 µM (≈ 120 µg/mL); in data set [3] (setting [9]) it was greater than 200 µM. The solubility at 18 h in data set [3] (setting [10]), in data set [3] (setting [11]) and in data set [3] (setting [12]) was greater than 200 µM each time.

On to `CC[C@H](C)[C@H](NC(=O)[C@@H]1CCCN1C(=O)CNC(=O)[C@H](Cc1ccccc1)NC(=O)[C@H](CC(N)=O)NC(=O)[C@H](CCC(N)=O)NC(=O)[C@H](CO)NC(=O)[C@H](CO)NC(=O)[C@H](Cc1c[nH]cn1)NC(=O)[C@H](Cc1c[nH]cn1)NC(=O)[C@H](CC(C)C)NC(=O)[C@H](Cc1ccccc1)NC(=O)[C@H](CCC(=O)O)NC(=O)[C@H](C)NC(=O)[C@H](CC(C)C)NC(=O)[C@H](CCCNC(=N)N)NC(=O)[C@H](CCC(N)=O)NC(=O)[C@@H](NC(=O)[C@H](C)NC(=O)[C@@H]1CSSC[C@H](NC(=O)[C@H](CCCCN)NC(=O)CC[C@H](NC(=O)CCCCCCCCCCCCCCCCCCC(=O)O)C(=O)O)C(=O)N[C@@H](CC(N)=O)C(=O)N[C@@H]([C@@H](C)O)C(=O)N[C@@H](C)C(=O)N[C@@H]([C@@H](C)O)C(=O)N1)[C@@H](C)O)C(=O)N[C@@H](CC(C)C)C(=O)N1CCC[C@H]1C(=O)N1CCC[C@H]1C(=O)N[C@H](C(=O)N[C@@H](CC(N)=O)C(=O)N[C@H](C(=O)NCC(=O)N[C@@H](CO)C(=O)N[C@@H](Cc1c[nH]cn1)C(=O)N[C@H](C(=O)N[C@@H](Cc1ccc(O)cc1)C(N)=O)[C@@H](C)O)C(C)C)[C@@H](C)O` [Example 117, N-alpha-[(S)-4-Carboxy-4-(19-carboxynonadecanoylamino)butyryl]-[Glu14,His17,Gln21,His35)-pramlintide] ({C20 diacid-γGlu}-KCNTATCATQRLAEFLHHSSQNFGPILPPTNVGSHTY-NH2; disulfide 2-7 (inferred); C-terminus assumed), for which the results for the EC50 in data set [1] and in data set [2] were 0.169 nM and 0.156 nM, respectively. The solubility at 18 h in data set [3] (setting [4]) was greater than 200 µM; in data set [3] (setting [5]), greater than 200 µM; in data set [3] (bistrispropane buffer, pH 7, pH 7.0, 18 hours at room temperature, Table 3, read-out: Solubility pH 7.0), greater than 200 µM; in data set [3] (bistrispropane buffer, pH 7, pH 7.0, Table 8, read-out: Solubility pH 7.0) it was greater than 200 µM; in data set [3] (bistrispropane buffer, pH 7, pH 7.0, Table 9, read-out: Solubility pH 7.0), greater than 200 µM; in data set [3] (setting [6]), greater than 200 µM. For the same compound, the solubility at 18 h in data set [3] (bistrispropane buffer, pH 7.5, pH 7.5, Table 9, read-out: Solubility pH 7.5) is greater than 200 µM; in data set [3] (setting [7]), greater than 200 µM; in data set [3] (setting [8]), greater than 200 µM; in data set [3] (setting [9]) it was greater than 200 µM; in data set [3] (setting [10]), greater than 200 µM; in data set [3] (setting [11]), greater than 200 µM. Also, the solubility at 18 h in data set [3] (setting [12]) was greater than 200 µM.

`CC[C@H](C)[C@H](NC(=O)[C@H](CCC(=O)O)NC(=O)CNC(=O)[C@H](Cc1ccccc1)NC(=O)[C@H](CC(N)=O)NC(=O)[C@H](CC(N)=O)NC(=O)[C@H](CO)NC(=O)[C@H](CO)NC(=O)[C@H](CCCNC(=N)N)NC(=O)[C@H](Cc1c[nH]cn1)NC(=O)[C@H](CC(C)C)NC(=O)[C@H](Cc1ccccc1)NC(=O)[C@H](CCC(=O)O)NC(=O)[C@H](C)NC(=O)[C@H](CC(C)C)NC(=O)[C@H](CCCNC(=N)N)NC(=O)[C@H](CCC(N)=O)NC(=O)[C@@H](NC(=O)[C@H](C)NC(=O)[C@@H]1CSSC[C@H](NC(=O)[C@H](Cc2c[nH]cn2)NC(=O)CC[C@H](NC(=O)CCCCCCCCCCCCCCCCCCC(=O)O)C(=O)O)C(=O)N[C@@H](CC(N)=O)C(=O)N[C@@H]([C@@H](C)O)C(=O)N[C@@H](C)C(=O)N[C@@H]([C@@H](C)O)C(=O)N1)[C@@H](C)O)C(=O)N[C@@H](CC(C)C)C(=O)N[C@@H](CO)C(=O)N[C@@H](CCCNC(=N)N)C(=O)N[C@H](C(=O)N[C@@H](CC(N)=O)C(=O)N[C@H](C(=O)NCC(=O)N[C@@H](CO)C(=O)N[C@@H](CC(N)=O)C(=O)N[C@H](C(=O)N[C@@H](Cc1ccc(O)cc1)C(N)=O)[C@@H](C)O)C(C)C)[C@@H](C)O` [Example 7, N-alpha-[(S)-4-Carboxy-4-(19-carboxynonadecanoylamino)butyryl]-[His1,Glu14,His17,Arg18,Glu25,Ser28,Arg29]-pramlintide] ({C20 diacid-γGlu}-HCNTATCATQRLAEFLHRSSNNFGEILSRTNVGSNTY-NH2; disulfide 2-7 (inferred); C-terminus assumed): the EC50 in data set [1] was 0.131 nM; in data set [2], 0.0779 nM. The solubility at 18 h is 69 µM (≈ 315 µg/mL) in data set [3] (setting [4]); 32 µM (≈ 146 µg/mL) in data set [3] (setting [5]); 42 µM (≈ 192 µg/mL) in data set [3] (setting [6]); 89 µM (≈ 406 µg/mL) in data set [3] (setting [7]); 155 µM (≈ 708 µg/mL) in data set [3] (setting [8]); greater than 200 µM in data set [3] (setting [9]). For the same compound, the figures for the solubility at 18 h in data set [3] (setting [10]), in data set [3] (setting [11]) and in data set [3] (setting [12]) were greater than 200 µM, greater than 200 µM and 13 µM (≈ 59.3 µg/mL), respectively.
